Biological target: T1, BTK (Homo sapiens, UniProt Q06187)
T1 construct: purchased Upstate 14-552
Experiment: In vitro BTK kinase assay (BTK-POLYGAT-LS)
Format: biochemical
Conditions: IC50 (10 uM ATP)
Method: In vitro BTK Kinase Assay
The purpose of the BTK in vitro assay is to determine compound potency against BTK through the measurement of IC50. […] For a typical assay, a 24 μL aliquot of a ATP/peptide master mix (final concentration; ATP 10 μM, polyGAT 100 nM) in kinase buffer (10 mM Tris-HCl pH 7.5, 10 mM MgCl2, 200 μM Na3PO4, 5 mM DTT, 0.01% Triton X-100, and 0.2 mg/ml casein) is added to each well. […] The assay is incubated for 30 minutes before being stopped with 28 μL of a 50 mM EDTA solution. […] The plate is covered and incubated for 45 minutes at room temperature.

T1 sequence (Q06187 whole entry): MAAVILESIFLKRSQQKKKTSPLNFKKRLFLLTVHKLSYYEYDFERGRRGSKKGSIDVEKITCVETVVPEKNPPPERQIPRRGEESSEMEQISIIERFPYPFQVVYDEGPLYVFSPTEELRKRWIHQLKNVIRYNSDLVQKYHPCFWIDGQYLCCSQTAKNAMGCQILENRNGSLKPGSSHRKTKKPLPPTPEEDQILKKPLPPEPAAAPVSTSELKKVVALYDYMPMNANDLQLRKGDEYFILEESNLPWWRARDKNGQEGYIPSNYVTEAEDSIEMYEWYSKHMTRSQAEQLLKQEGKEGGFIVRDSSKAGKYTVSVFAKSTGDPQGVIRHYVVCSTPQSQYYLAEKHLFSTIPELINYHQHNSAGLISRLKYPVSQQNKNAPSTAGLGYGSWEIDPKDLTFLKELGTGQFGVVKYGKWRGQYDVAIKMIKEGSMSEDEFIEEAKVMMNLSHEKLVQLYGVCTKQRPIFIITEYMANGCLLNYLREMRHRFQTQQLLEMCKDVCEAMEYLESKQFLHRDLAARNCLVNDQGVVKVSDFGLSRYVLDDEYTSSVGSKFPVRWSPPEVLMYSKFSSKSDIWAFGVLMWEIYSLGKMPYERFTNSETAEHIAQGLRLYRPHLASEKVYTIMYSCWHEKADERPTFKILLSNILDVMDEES

Row | IC50 [µM] | Structure (SMILES)
1 | < 0.1 | C[C@@H]1C[C@H](Nc2ncnc3[nH]ncc23)CN(C(=O)CNc2cc(Cl)cc(Cl)c2)C1 [Compound 103]
2 | > 10 | CC(=O)Nc1cc(N[C@H]2CCCN(C(=O)CNc3cc(Cl)cc(Cl)c3)C2)ncn1 [Compound 109]
3 | 0.1 to 0.999 | Nc1ncnc(N[C@H]2CCCN(C(=O)CNc3cc(Cl)cc(Cl)c3)C2)c1F [Compound 110]
4 | < 0.1 | O=C(CNc1cc(Cl)cc(Cl)c1)N1CCC2CCN(c3ncnc4[nH]cnc34)C2C1 (centres unmarked) [Compound 111]
5 | > 10 | O=C(CNc1cc(Cl)cc(Cl)c1)N1CCC[C@H](Nc2ncnc3scnc23)C1 [Compound 115]
6 | 0.1 to 0.999 | O=C(CNc1cc(Cl)cc(Cl)c1)N1C[C@@H](Nc2ncnc3[nH]ccc23)C[C@@H](C(F)(F)F)C1 [Compound 122]
7 | 1 to 10 | CN(c1ncnc2[nH]ccc12)[C@@H]1CCN(C(=O)CNc2cc(Cl)cc(Cl)c2)C1 [Compound 127]
8 | > 10 | CN(c1ncnc2[nH]ncc12)[C@H]1CCN(C(=O)CNc2cc(Cl)cc(Cl)c2)C1 [Compound 130]
9 | 1 to 10 | CN(c1ncnc2[nH]ncc12)[C@@H]1CCN(C(=O)CNc2cc(Cl)cc(Cl)c2)C1 [Compound 131]
10 | > 10 | CN(c1ncnc2[nH]ccc12)[C@H]1CCN(C(=O)CNc2cc(Cl)cc(Cl)c2)C1 [Compound 132]
11 | 1 to 10 | Nc1cc(N[C@H]2CCCN(C(=O)CNc3cc(Cl)cc(Cl)c3)C2)ncn1 [Compound 133]
12 | > 10 | Nc1ncnc(N[C@H]2CCCN(C(=O)CNc3cc(Cl)cc(Cl)c3)C2)c1Cl [Compound 134]
13 | > 10 | O=C(CNc1cc(Cl)cc(Cl)c1)N1CCC[C@H](Nc2cc(Br)ncc2[N+](=O)[O-])C1 [Compound 136]
14 | > 10 | O=C(CNc1cc(Cl)cc(Cl)c1)N1CCC(c2ccccc2)C(Nc2ncnc3[nH]ccc23)C1 (centres unmarked) [Compound 137]
15 | 0.1 to 0.999 | CN(c1ncnc2[nH]ncc12)C1CC2CC1N(C(=O)CNc1cc(Cl)cc(Cl)c1)C2 (centres unmarked) [Compound 141]
16 | > 10 | CN(c1cc(N)ncn1)[C@H]1CCCN(C(=O)CNc2cc(Cl)cc(Cl)c2)C1 [Compound 144]
17 | 1 to 10 | CN(c1ncnc2[nH]ncc12)[C@H]1CCCN(C(=O)CNc2cc(Cl)cc(C(F)(F)F)c2)C1 [Compound 145]
18 | 1 to 10 | CN(c1ncnc2[nH]ncc12)[C@H]1CCCN(C(=O)CNc2cc(F)cc(Cl)c2)C1 [Compound 146]
19 | > 10 | O=C(CNc1cc(Cl)cc(Cl)c1)N1CC[C@H](Nc2ncnc3[nH]ncc23)C1 [Compound 147]
20 | 0.1 to 0.999 | CN(c1ncnc2[nH]cnc12)[C@H]1CCCN(C(=O)CNc2cc(Cl)cc(Cl)c2)C1 [Compound 151]

Row | IC50 [µM] | Structure (SMILES)
21 | > 10 | O=C(CNc1cc(Cl)cc(Cl)c1)N1CC[C@H](Nc2ncnc3[nH]ccc23)C1 [Compound 152]
22 | > 10 | O=C(CNc1cc(Cl)cc(Cl)c1)N1CC[C@@H](Nc2ncnc3[nH]ncc23)C1 [Compound 153]
23 | > 10 | O=C1CCc2c(ncnc2N[C@H]2CCCN(C(=O)CNc3cc(Cl)cc(Cl)c3)C2)N1 [Compound 154]
24 | > 10 | O=C(CNc1cc(Cl)cc(Cl)c1)N1CC[C@@H](Nc2ncnc3[nH]ccc23)C1 [Compound 155]
25 | > 10 | Nc1nc(N[C@H]2CCCN(C(=O)CNc3cc(Cl)cc(Cl)c3)C2)c2cc[nH]c2n1 [Compound 157]
26 | > 10 | CCn1cnc2cnc(N[C@H]3CCCN(C(=O)CNc4cc(Cl)cc(Cl)c4)C3)cc21 [Compound 158]
27 | > 10 | N#Cc1c(N)ncnc1N[C@H]1CCCN(C(=O)CNc2cc(Cl)cc(Cl)c2)C1 [Compound 161]
28 | > 10 | Nc1nccc(N[C@H]2CCCN(C(=O)CNc3cc(Cl)cc(Cl)c3)C2)n1 [Compound 164]
29 | > 10 | COc1c(N)ncnc1N[C@H]1CCCN(C(=O)CNc2cc(Cl)cc(Cl)c2)C1 [Compound 168]
30 | < 0.1 | O=C(CNc1cc(Cl)cc(Cl)c1)N1CCC[C@H](Nc2ccnc3[nH]ccc23)C1 [Compound 169]
31 | < 0.1 | O=C(CNc1cc(Cl)cc(Cl)c1)N1CC2CC(Nc3ncnc4[nH]ncc34)C1C2 (centres unmarked) [Compound 171]
32 | 0.1 to 0.999 | O=C(CNc1cc(Cl)cc(Cl)c1)N1CCC[C@H](Nc2ncnc3[nH]cnc23)C1 [Compound 175]
33 | 1 to 10 | O=C(CNc1cc(F)cc(C(F)(F)F)c1)N1CCC[C@H](Nc2ncnc3[nH]ncc23)C1 [Compound 177]
34 | 1 to 10 | O=C(CNc1cc(Cl)cc(C(F)(F)F)c1)N1CCC[C@H](Nc2ncnc3[nH]ncc23)C1 [Compound 178]
35 | 1 to 10 | O=C(CNc1ccccc1)N1CCCC(Nc2ncnc3[nH]ncc23)C1 (centres unmarked) [Compound 179]
36 | > 10 | O=C(CNc1cccc(F)c1)N1CCC[C@H](Nc2ncnc3[nH]ncc23)C1 [Compound 182]
37 | > 10 | O=C(CNc1ccc(Cl)cc1)N1CCC[C@H](Nc2ncnc3[nH]ncc23)C1 [Compound 184]
38 | 1 to 10 | O=C(CNc1cc(C(F)(F)F)cc(C(F)(F)F)c1)N1CCC[C@H](Nc2ncnc3[nH]ncc23)C1 [Compound 185]
39 | > 10 | O=C(CNc1cc(C(F)(F)F)cc(C(F)(F)F)c1)N1CCC[C@H](Nc2ncnc3[nH]ncc23)C1 [Compound 186]
40 | 0.1 to 0.999 | O=C(CNc1cc(Cl)cc(Cl)c1)N1CC(Nc2ncnc3[nH]ncc23)Cc2ccccc21 (centres unmarked) [Compound 191]

The next lines start with the compound.

Row | Structure (SMILES) | IC50 [µM]
41 | O=C(CNc1cc(Cl)cc(Cl)c1)N1CCCC(N(CCN2CCCCC2)c2ncnc3[nH]ccc23)C1 (centres unmarked) [Compound 88] | 1 to 10
42 | O=C(CNc1cc(Cl)cc(Cl)c1)N1CCCC(N(CCc2ccccc2)c2ncnc3[nH]ccc23)C1 (centres unmarked) [Compound 97] | > 10
43 | C[C@@H]1C[C@H](N(C)c2ncnc3[nH]ccc23)CN(C(=O)CNc2cc(Cl)cc(Cl)c2)C1 [Compound 98] | < 0.1
44 | CCC[C@@H](Nc1cc(Cl)cc(Cl)c1)C(=O)N1CCC2CCN(c3ncnc4[nH]ccc34)C2C1 (some centres unmarked) [Compound 101] | < 0.1
45 | CCC[C@@H](Nc1cccc(Cl)c1)C(=O)N1CCC2CCN(c3ncnc4[nH]ccc34)C2C1 (some centres unmarked) [Compound 102] | < 0.1
46 | CCCN(c1ncnc2[nH]ccc12)C1CCCN(C(=O)CNc2cc(Cl)cc(Cl)c2)C1 (centres unmarked) [Compound 106] | < 0.1
47 | CCN(c1ncnc2[nH]ccc12)C1CCCN(C(=O)CNc2cc(Cl)cc(Cl)c2)C1 (centres unmarked) [Compound 108] | 0.1 to 0.999
48 | Nc1ncnc(N2CCC3CCN(C(=O)CNc4cc(Cl)cc(Cl)c4)CC32)c1F (centres unmarked) [Compound 112] | < 0.1
49 | CN(c1ncnc(N)c1C#N)[C@H]1CCCN(C(=O)CNc2cc(Cl)cc(Cl)c2)C1 [Compound 116] | > 10
50 | CC1CCCC(NCC(=O)N2CCC[C@H](Nc3ncnc4[nH]ccc34)C2)C1 (some centres unmarked) [Compound 117] | > 10
51 | CCCN(c1ncnc2[nH]ccc12)[C@H]1CCCN(C(=O)CNc2cc(Cl)cc(Cl)c2)C1 [Compound 118] | > 10
52 | O=C(CNc1cc(Cl)cc(Cl)c1)N1CCC[C@H](N(CCc2ccccc2)c2ncnc3[nH]ccc23)C1 [Compound 119] | > 10
53 | O=CNc1cnc(Br)cc1N(C=O)[C@H]1CCCN(C(=O)CNc2cc(Cl)cc(Cl)c2)C1 [Compound 120] | > 10
54 | O=CNc1cnc(Br)cc1N[C@H]1CCCN(C(=O)CN(C=O)c2cc(Cl)cc(Cl)c2)C1 [Compound 121] | > 10
55 | CN(c1ncnc(N)c1C(N)=O)[C@H]1CCCN(C(=O)CNc2cc(Cl)cc(Cl)c2)C1 [Compound 125] | > 10
56 | CCN(c1ncnc2[nH]ccc12)[C@H]1CCCN(C(=O)CNc2cc(Cl)cc(Cl)c2)C1 [Compound 126] | > 10
57 | CC(=O)Nc1cc(N(C)[C@H]2CCCN(C(=O)CNc3cc(Cl)cc(Cl)c3)C2)ncn1 [Compound 128] | > 10

Row | Structure (SMILES) | IC50 [µM]
58 | CN(c1ncnc2c1CCC(=O)N2)[C@H]1CCCN(C(=O)CNc2cc(Cl)cc(Cl)c2)C1 [Compound 129] | > 10
59 | O=C(CNc1ccccc1S(=O)(=O)N1CCCCC1)N1CCC[C@H](Nc2ncnc3[nH]ccc23)C1 [Compound 138] | > 10
60 | CC1CCC(NCC(=O)N2CCC[C@H](Nc3ncnc4[nH]ccc34)C2)CC1 (some centres unmarked) [Compound 139] | > 10
61 | CC1CCCCC1NCC(=O)N1CCC[C@H](Nc2ncnc3[nH]ccc23)C1 (some centres unmarked) [Compound 140] | > 10
62 | CN(c1ncnc2[nH]ccc12)[C@H]1CCCN(C(=O)CNc2cc(Cl)cc(C(F)(F)F)c2)C1 [Compound 142] | 0.1 to 0.999
63 | O=C(CNC1CCCC1)N1CCC[C@H](Nc2ncnc3[nH]ccc23)C1 [Compound 149] | > 10
64 | CN(c1ncnc2[nH]ncc12)[C@H]1CCCN(C(=O)CNc2cc(C(F)(F)F)cc(C(F)(F)F)c2)C1 [Compound 150] | > 10
65 | O=C1CCc2c(ncnc2N2CCC3CCN(C(=O)CNc4cc(Cl)cc(Cl)c4)CC32)N1 (centres unmarked) [Compound 156] | 1 to 10
66 | Nc1cc(N2CCC3CCN(C(=O)CNc4cc(Cl)cc(Cl)c4)CC32)ncn1 (centres unmarked) [Compound 159] | < 0.1
67 | O=C(CNC1CCCCC1)N1CCC[C@H](Nc2ncnc3[nH]ccc23)C1 [Compound 162] | > 10
68 | CN(c1ncnc2[nH]ccc12)C1CC2CC1N(C(=O)CNc1cc(Cl)cc(Cl)c1)C2 (centres unmarked) [Compound 163] | 1 to 10
69 | CN(c1ncnc2[nH]ccc12)[C@@H]1CCCN(C(=O)CNc2cc(F)cc(Cl)c2)C1 [Compound 165] | 0.1 to 0.999
70 | CN(c1ncnc2[nH]ccc12)[C@@H]1CCCN(C(=O)CNc2cc(C(F)(F)F)cc(C(F)(F)F)c2)C1 [Compound 166] | > 10
71 | O=C(CNc1cc(C(F)(F)F)cc(C(F)(F)F)c1)N1CCC[C@H](Nc2ncnc3[nH]ccc23)C1 [Compound 187] | 1 to 10
72 | O=C(CNc1cccc(F)c1)N1CCC[C@H](Nc2ncnc3[nH]ccc23)C1 [Compound 188] | 1 to 10
73 | O=C(CNc1cc(Cl)cc(Cl)c1)N1CC(Nc2ncnc3[nH]ccc23)Cc2ccccc21 (centres unmarked) [Compound 190] | 0.1 to 0.999
74 | O=C(CNc1ccc(F)cc1)N1CCC[C@H](Nc2ncnc3[nH]ccc23)C1 [Compound 193] | > 10
